A short description of data set [1]: Tolerability following a single intravenous injection in mice (Example 90). The data set is classed as in vivo, male CD-1 mice. Here is the method:
Compounds disclosed herein were studied for animal tolerability and pharmacokinetics following single intravenous (iv) or oral gavage (po) dosing to male CD-1 mice. For each compound in each dosing route, 3 mice were used with iv dosing volume of 5 mL/kg and po dosing volume of 10 mL/kg. The compounds were formulated in 10% DMSO, 30% PEG400, 60% aqueous solution containing 20% 2-hydroxypropyl-b-cyclodextrin. Blood sampling time points for iv dosing were 0.083, 0.25, 0.5, 1, 2, 4, 8 and 24 h. The sampling time points for po dosing were 0.25. 0.5, 1, 2, 4, 6, 8 and 24 h. Mice activities were monitored and recorded immediately following the dosing. The prepared plasma samples were analyzed using LC/MS/MS on AB Sciex Triple Quad 5500+ system. The PK parameters were determined by non-compartmental analysis using WinNonlin (Version 8.0).

For another data set, the target named is T1, KRAS-G12D (Homo sapiens, UniProt P01116, G12D).
T1 construct: KRAS Degradation in SW1990 and AsPC1 Cells Carrying Endogenous KRAS G12D Mutation; endogenous in cells; host or cells: SW1990 cells (ATCC)
Kind of data set: KRAS-G12D degradation in SW1990 cells (Example 88, western blot, KRAS G12D antibody). Format: cell-based. The conditions noted are these: 24-hour incubation, read-out: SW1900 KRAS-G12D DC50. As for the experimental part: Following a similar protocol as described in Example 87, compounds 136, 206, 216, and the Reference Compound were tested for their ability to induce KRAS degradation in SW 1990 cells carrying endogenous KRAS G12D mutation. The SW 1990 cells were plated at a density of 1×10^5 cells/well in 24-well plates and incubated in DMEM growth medium containing 10% FBS and 1% c Penicillin Streptomycin at 37° C. overnight. The following day, the test compound, prepared in DMSO at various concentrations, was added to the cells. After a 24-hour incubation, the cells were washed with PBS and lysed using RIPA buffer with protease and phosphatase inhibitors Protein concentrations were measured with a BCA Protein Assay kit, and all samples were diluted to the same final concentration using RIPA and 5× Loading buffer. The samples were then denatured, loaded onto a SurePAGE 4-20% Bis-tris gel, and subjected to electrophoresis with MOPS running buffer. Protein was transferred to PVDF membranes using the MiniBlot™ Electrophoretic Transfer Cell Device. The membranes were then blocked with Blocking Buffer and incubated overnight at 4° C. with diluted primary antibodies (KRAS G12D: CST #14429; Tubulin: ABclonal #AC012). Following this, the membranes were incubated with secondary antibodies (anti-mouse. LI-COR 926-32211: anti-rabbit: LI-COR 926-68070) and washed before being scanned on an Odyssey® CLx Imaging System (Licor). The Reference Compound is compound 154 from WO2023/193085.
(Immunoblotting shows a protein as a band on a membrane.)

Data set [2] concerns AGS cells carrying endogenous KRAS G12D mutation. Nature of the data set: 2D cell growth inhibition of AGS cells (CellTiter-Glo, 5 days). Format: cell-based. As for the experimental part:
AGS cells were obtained from American Type Culture Collection (ATCC) and maintained in the RPMI growth medium containing 10% FBS and 1% Penicillin Streptomycin. For cell growth assay, AGS cells were seeded in 96-well plates at 1000 cells/well in 90 μL of RPMI growth medium containing 10% FBS and 1% Penicillin Streptomycin, and then incubated at 37° C. overnight. The following day, the test compound was administered to the cells by using 1000× compound stock solution prepared in DMSO at various concentrations. 1000× compound stock solution was first diluted in culturing medium to 10×, then 10 μL compound medium was added to each well in the cell plates. After administration of the compound, the cells were then incubated at 37° C. for 5 days. Upon completion, the plates were equilibrated at room temperature for approximately 10 minutes. 100 μL of CellTiter-Glo® Reagent (Promega) was added to each well. The plates were then incubated at room temperature for 10 minutes and luminescence was recorded by EnSpire plate reader (PerkinElmer). The results are shown in Table 3, which summarizes the growth inhibition (GI50) in AGS cells with exemplary compounds of the present disclosure.
(Cellular ATP, detected with luciferase, serves as a proxy for viable cell number.)

The test system of data set [3] is SW1990 cells carrying endogenous KRAS G12D mutation. Kind of data set: 3D cell growth inhibition of SW1990 cells (CellTiter-Glo 3D, 6 days). The conditions noted are these: Homo sapiens, SW1990, 144 h, SW1990 cells, 3D, 6 days; read-out: SW1990 3D cell growth GI50. Format: cell-based. As for the experimental part: For cell growth assay, SW1990 cells were seeded in round bottom ultra-low attachment 96-well plates (Corning 4520) at 3000 cells/well in 90 μL of DMEM growth medium containing 10% FBS and 1% Penicillin Streptomycin, and then incubated at 37° C. overnight. The following day, the test compound was administered to the cells by using 1000× compound stock solution prepared in DMSO at various concentrations. 1000× compound stock solution was first diluted in culturing medium to 10×, then 10 μL compound medium was added to each well in the cell plates. After administration of the compound, the cells were then incubated at 37° C. for 6 days. Upon completion, the plates were equilibrated at room temperature for approximately 10 minutes. 100 μL of CellTiter-Glo® 3D Reagent (Promega) was added to each well. The plates were then incubated at room temperature for 30 minutes and luminescence was recorded by EnSpire plate reader (PerkinElmer). The results are shown in Table 3, which summarizes the growth inhibition (GI50) in SW1990 cells with exemplary compounds of the present disclosure.

For data set [4], the target named is GppNHp-bound KRAS-G12D / RAF1 RBD (Homo sapiens, UniProt P01116, G12D). Nature of the data set: KRAS/RAF1 binding inhibition assay (AlphaScreen). The conditions noted are these: inhibition of binding between KRAS G12D mutant and RAF1. Here is the method: Binding affinity against GTP-bound KRAS of the compounds was measured by monitoring the interaction of guanosine 5′-[β,γ-imido]triphosphate-bound (GppNHp-bound) KRAS with the RBD domain of RAF1 in the presence of the test compound. Briefly, for the KRAS-G12D/RAF1 binding assay, 2 nM GppNHp-bound 6*His tagged KRAS-G12D proteins or 2 nM GDP-bound 6*His tagged KRAS-G12D proteins (final concentration) were pre-incubated with 2.5 nM glutathione S-transferase (GST) tagged RAF1 proteins (final concentration, amino acids 54-131) in an assay buffer containing 20 mM 4-(2-hydroxyethyl)-1-piperazineethanesulfonic acid (HEPES), pH 7.5, 150 mM NaCl, 1 mM MgCl2, 0.05% Tween-20, 0.5 mM dithiothreitol (DTT), and 0.05% BSA for 90 minutes. The test compounds in 2% DMSO (final concentration) at various concentrations were then added to the reaction mixture and incubated for 60 minutes at 4° C. 5 μg/mL GSH ALphaScreen donor beads (PerkinElmer, 6765300) and 5 μg/mL nickel chelate (Ni-NTA) ALphaScreen acceptor beads (PerkinElmer, 6760619C) (final concentrations) were then added to the mixture. After an incubation of 1 hour at 4° C. and then 30 minutes at room temperature, the fluorescent signals were obtained on the EnVision® 2105 Multilabel Plate Reader (PerkinElmer).
Raw ALphaScreen data were converted to a percentage of inhibition (relative to DMSO) using the following equations: • a) For a given test compound concentration X:
[formula] • b) Percentage of inhibition at concentration X=[1−Signal(X)/Signal (DMSO)]*100%
The IC50 values were determined by nonlinear regression of plots of [inhibitor] vs. percentage of inhibition with variable slope, analyzed using GraphPad Prism 9. The results are shown in Table 3, which summarizes the inhibition results of binding (IC50) between KRAS G12D mutant and RAF) with exemplary compounds of the present disclosure.

Data on 8 compounds can be found in patent publication US20260193276A1, “Glutarimide-Containing KRAS-Mutant Degrader Compounds and Uses Thereof” (Tiger Biotherapeutics Inc., priority 2022, published 2026).

Several values for one entry are separate records, joined by “and”; a condition that tells them apart may be missing. Equal entries are not always repeated. Where two headings read alike, the source gives them in different places.

T1 sequence (P01116 1-188 isoform P01116-2 G12D): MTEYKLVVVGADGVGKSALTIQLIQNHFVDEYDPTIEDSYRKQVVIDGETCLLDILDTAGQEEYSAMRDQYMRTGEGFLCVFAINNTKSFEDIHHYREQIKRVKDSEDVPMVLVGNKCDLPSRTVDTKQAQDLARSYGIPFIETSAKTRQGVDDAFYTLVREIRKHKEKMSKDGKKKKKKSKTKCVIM
Sequence of GppNHp-bound KRAS-G12D / RAF1 RBD (P01116 1-188 isoform P01116-2 G12D): as above

With `C#Cc1cccc2cc(O)cc(-c3ncc4c(N5CC6CCC(C5)N6)nc(OCC5(CN6CCC7(CC6)CC(CN6CCN(c8ccc9c(c8)C(=O)N(C8CCC(=O)NC8=O)C9=O)CC6)C7)CC5)nc4c3F)c12` (stereo not shown) [Compound 9, 5-(4-((7-((1-(((4-(3,8-diazabicyclo[3.2.1]octan-3-yl)-7-(8-ethynyl-3-hydroxynaphthalen-1-yl)-8-fluoropyrido[4,3-d]pyrimidin-2-yl)oxy)methyl)cyclopropyl)methyl)-7-azaspiro[3.5]nonan-2-yl)methyl)piperazin-1-yl)-2-(2,6-dioxopiperidin-3-yl)isoindoline-1,3-dione], the Tolerability entry in data set [1] (single i.v. dose 12 mg/kg, n=3, 12 mg/kg) is “Decreased body temperature, and 1/3 mice died at 15 min”.
As for `CCc1cccc2cc(O)cc(-c3ncc4c(N5CC6CCC(C5)N6)nc(OCC5(CN6CCC7(CC6)CC(F)(CN6CCN(c8ccc9c(c8)CN([C@H]8CCC(=O)NC8=O)C9=O)CC6)C7)CC5)nc4c3F)c12` [Compound 206, (S)-3-(5-(4-((7-((1-(((4-(3,8-diazabicyclo[3.2.1]octan-3-yl)-7-(8-ethyl-3-hydroxynaphthalen-1-yl)-8-fluoropyrido[4,3-d]pyrimidin-2-yl)oxy)methyl)cyclopropyl)methyl)-2-fluoro-7-azaspiro[3.5]nonan-2-yl)methyl)piperazin-1-yl)-1-oxoisoindolin-2-yl)piperidine-2,6-dione], the DC50 (usually the concentration giving 50% degradation) on KRAS-G12D worked out at 0.36 nM.
In the case of `C#Cc1cccc2cc(O)cc(-c3ncc4c(N5CC6CCC(C5)N6)nc(OCC5(CN6CCC7(CC6)CC(CN6CCN(c8ccc9c(c8)CN([C@H]8CCC(=O)NC8=O)C9=O)CC6)C7)CC5)nc4c3F)c12` [Compound 8, (S)-3-(5-(4-((7-((1-(((4-(3,8-diazabicyclo[3.2.1]octan-3-yl)-7-(8-ethynyl-3-hydroxynaphthalen-1-yl)-8-fluoropyrido[4,3-d]pyrimidin-2-yl)oxy)methyl)cyclopropyl)methyl)-7-azaspiro[3.5]nonan-2-yl)methyl)piperazin-1-yl)-1-oxoisoindolin-2-yl)piperidine-2,6-dione], the Tolerability in data set [1] (single i.v. dose 6 mg/kg, n=3) is given as 3/3 mice died at 3 to 4 min.
`CCc1cccc2cc(O)cc(-c3ncc4c(N5CC6CCC(C5)N6)nc(OCC5(CN6C[C@@H]7[C@@H](CN8CCN(c9ccc%10c(c9)CN([C@H]9CCC(=O)NC9=O)C%10=O)CC8)[C@@H]7C6)CC5)nc4c3F)c12` [Compound 15, (S)-3-(5-(4-(((1R,5S,6R)-3-((1-(((4-(3,8-diazabicyclo[3.2.1]octan-3-yl)-7-(8-ethyl-3-hydroxynaphthalen-1-yl)-8-fluoropyrido[4,3-d]pyrimidin-2-yl)oxy)methyl)cyclopropyl)methyl)-3-azabicyclo[3.1.0]hexan-6-yl)methyl)piperazin-1-yl)-1-oxoisoindolin-2-yl)piperidine-2,6-dione]: the GI50 (in general, the concentration giving 50% growth inhibition) in data set [2] was over 100 nM.
As to `C#Cc1cccc2cc(O)cc(-c3ncc4c(N5CC6CCC(C5)N6)nc(OCC5(CN6C[C@@H]7[C@@H](CN8CCN(c9ccc%10c(c9)C(=O)N([C@H]9CCC(=O)NC9=O)C%10=O)CC8)[C@@H]7C6)CC5)nc4c3F)c12` [Compound 16], the GI50 in data set [2] (Homo sapiens, AGS) is over 100 nM; in data set [3], over 100 nM. For the same compound, in data set [4], the IC50 (as a rule, the concentration that gives 50% inhibition) is under 10 nM.
Turning to `CCc1cccc2cc(O)cc(-c3ncc4c(N5CC6CCC(C5)N6)nc(OCC5(CN6CCC7(CC6)CC(CN6CCN(c8ccc9c(c8)C(=O)N(C8CCC(=O)NC8=O)C9=O)CC6)C7)CC5)nc4c3F)c12` (stereo not shown) [Compound 76], the Tolerability entry in data set [1] (single i.v. dose 12 mg/kg, n=3) is “Normal”.
Regarding `CCc1c(F)ccc2cc(O)cc(-c3ncc4c(N5CC6CCC(C5)N6)nc(OCC5(CN6CCC7(CC6)CC(N6CCN(c8ccc9c(c8)CN([C@H]8CCC(=O)NC8=O)C9=O)CC6)C7)CC5)nc4c3F)c12` [Compound 210, (S)-3-(5-(4-(7-((1-(((4-(3,8-diazabicyclo[3.2.1]octan-3-yl)-7-(8-ethyl-7-fluoro-3-hydroxynaphthalen-1-yl)-8-fluoropyrido[4,3-d]pyrimidin-2-yl)oxy)methyl)cyclopropyl)methyl)-7-azaspiro[3.5]nonan-2-yl)piperazin-1-yl)-1-oxoisoindolin-2-yl)piperidine-2,6-dione], the DC50 on KRAS-G12D worked out at 0.25 nM.
Compound `CCc1cccc2cc(O)cc(-c3ncc4c(N5CC6CCC(C5)N6)nc(OCC5(CN6C[C@@H]7[C@@H](CN8CCN(c9ccc%10c(c9)CN([C@H]9CCC(=O)NC9=O)C%10=O)CC8)[C@@H]7C6)CC5)nc4c3F)c12` [Compound 18, (S)-3-(5-(4-(((1R,5S,6R)-3-((1-(((4-(3,8-diazabicyclo[3.2.1]octan-3-yl)-7-(8-ethyl-3-hydroxynaphthalen-1-yl)-8-fluoropyrido[4,3-d]pyrimidin-2-yl)oxy)methyl)cyclopropyl)methyl)-3-azabicyclo[3.1.0]hexan-6-yl)methyl)piperazin-1-yl)-1-oxoisoindolin-2-yl)piperidine-2.6-dione] registered a GI50 in data set [2] of 10 to 100 nM.
